Laboratory results published in patent US7417156B2, “Orally active, antimalarial, anticancer, artemisinin-derived trioxane dimers” (Johns Hopkins University, priority 2002, dated 2008).
Structures can show the parent of a compound that is named as a salt. Where two headings read alike, the source gives them in different places.

Tested on: chloroquine-sensitive P. falciparum (NF54)
Assay: Antimalarial activity in vitro, [3H]hypoxanthine incorporation
Assay type: cell-based
[1] = Table I, NF54 strain, read-out: IC50

Row | Structure (SMILES) | IC50 | IC50 [1]
1 | CC1CCC2C(C)C(CC(O)(COC(=O)c3ccc[n+]([O-])c3)CC3OC4OC5(C)CCC6C(C)CCC(C3C)C46OO5)OC3OC4(C)CCC1C32OO4 (centres unmarked) [Compound 23, bis-trioxane vicinal diol nicotinate N-oxide] | sub-nanomolar | 0.4 nM
2 | CC1CCC2C(C)C(OC(=O)c3cc[n+]([O-])cc3)OC3OC4(C)CCC1C32OO4 (stereo not drawn) [Compound 33, α-dihydroartemisinin isonicotinate N-oxide] |  | 0.81 nM
3 | COC(=O)OCC(CC1OC2OC3(C)CCC4C(C)CCC(C1C)C24OO3)CC1OC2OC3(C)CCC4C(C)CCC(C1C)C24OO3 (centres unmarked) [Compound 36, bis-trioxane primary alcohol methyl carbonate] |  | 1.7 nM
4 | CC1CCC2C(C)C(OC(=O)CN(C)C)OC3OC4(C)CCC1C32OO4 (stereo not drawn) [Compound 32, α-dihydroartemisinin dimethylglycinate] |  | 1.1 nM
5 | CCOP(=O)(OCC)OCC(CC1OC2OC3(C)CCC4C(C)CCC(C1C)C24OO3)CC1OC2OC3(C)CCC4C(C)CCC(C1C)C24OO3 (centres unmarked) [Compound 26, bis-trioxane primary alcohol diethyl phosphoric acid triester] | sub-nanomolar | 0.74 nM
6 | CC1CCC2C(C)C(CC(COC(=O)c3ccncc3)CC3OC4OC5(C)CCC6C(C)CCC(C3C)C46OO5)OC3OC4(C)CCC1C32OO4 (centres unmarked) [Compound 8b, bis-trioxane primary alcohol isonicotinate] |  | 1.7 nM
7 | COP(=O)(OC)OCC(CC1OC2OC3(C)CCC4C(C)CCC(C1C)C24OO3)CC1OC2OC3(C)CCC4C(C)CCC(C1C)C24OO3 (centres unmarked) [Compound 27, bis-trioxane primary alcohol dimethyl phosphoric acid triester] | sub-nanomolar | 0.48 nM
8 | CC1CCC2C(C)C(CC(COC(=O)c3ccc[n+]([O-])c3)CC3OC4OC5(C)CCC6C(C)CCC(C3C)C46OO5)OC3OC4(C)CCC1C32OO4 (centres unmarked) [Compound 15, bis-trioxane primary alcohol nicotinate N-oxide] | sub-nanomolar | 0.58 nM
9 | CC1CCC2C(C)C(CC(O)(CC3OC4OC5(C)CCC6C(C)CCC(C3C)C46OO5)CS(=O)(=O)N(C)C)OC3OC4(C)CCC1C32OO4 (centres unmarked) [Compound 40, bis-trioxane tertiary alcohol N,N-dimethylsulfonamide] | sub-nanomolar | 0.73 nM
10 | COS(=O)(=O)CC(O)(CC1OC2OC3(C)CCC4C(C)CCC(C1C)C24OO3)CC1OC2OC3(C)CCC4C(C)CCC(C1C)C24OO3 (centres unmarked) [Compound 38, bis-trioxane tertiary alcohol methyl sulfonate] |  | 200 nM
11 | CC1CCC2C(C)C(CC3(CC4OC5OC6(C)CCC7C(C)CCC(C4C)C57OO6)COC(=O)O3)OC3OC4(C)CCC1C32OO4 (centres unmarked) [Compound 41, bis-trioxane vicinal diol cyclic carbonate] | sub-nanomolar | 0.59 nM
12 | CC1CCC2C(C)C(CC3(CC4OC5OC6(C)CCC7C(C)CCC(C4C)C57OO6)COS(=O)(=O)O3)OC3OC4(C)CCC1C32OO4 (centres unmarked) [Compound 42, bis-trioxane vicinal diol cyclic sulfate] |  | 19 nM
13 | CC1CCC2C(C)C(CC(O)(COC(=O)c3cc[n+]([O-])cc3)CC3OC4OC5(C)CCC6C(C)CCC(C3C)C46OO5)OC3OC4(C)CCC1C32OO4 (centres unmarked) [Compound 18, bis-trioxane vicinal diol isonicotinate N-oxide] | sub-nanomolar | 0.34 nM
14 | CCOC(=O)OCC(CC1OC2OC3(C)CCC4C(C)CCC(C1C)C24OO3)CC1OC2OC3(C)CCC4C(C)CCC(C1C)C24OO3 (centres unmarked) [Compound 37, bis-trioxane primary alcohol ethyl carbonate] |  | 2.8 nM
15 | CC1CCC2C(C)C(CC(CC3OC4OC5(C)CCC6C(C)CCC(C3C)C46OO5)OC(=O)c3ccc[n+]([O-])c3)OC3OC4(C)CCC1C32OO4 (centres unmarked) [Compound 25, bis-trioxane secondary alcohol nicotinate N-oxide] | sub-nanomolar | 0.31 nM
